Here are results for 37 compounds from ChEMBL document CHEMBL4483862, “Open-source discovery of chemical leads for next-generation chemoprotective antimalarials” (2018).

For the assay, the system named is Plasmodium berghei. As to the kind of experiment: Luciferase/luciferin-expressing antifolate-resistant parasites were used to infect a culture of HepG2 cells that were pre-incubated with compounds. Infected hepatocytes emit light due to the luciferase reaction. Assay results are presented as the percent inhibition of light emission compared to control. […]. The format is functional. The note with it: sporozoite; for IC90: read-out: LUCIFERASE INFECTION ASSAY - IC90.

The mark [1] stands for this setting: read-out: LUCIFERASE INFECTION ASSAY - IC50.

Structures are written as SMILES. Some results are limits rather than exact numbers.

Turning to `COc1ccc(C)cc1N1CC(C(=O)Nc2nc3ccccc3[nH]2)CC1=O` (centres undefined), the IC90 was found to be 4.27 µM. Besides, the IC50 (HEPG2TOX_HILL_SLOPE 2.88, HEPG2TOX_R_SQUARED 0.929, PBLUC_HILL_SLOPE 3.77, PBLUC_R_SQUARED 0.362, read-out: LUCIFERASE INFECTION ASSAY - IC50) was 2.38 µM.

Take `Cn1nc(C(=O)N2CCc3ccccc3C2)c2c1CCC(NCCc1nc(-c3ccccc3)cs1)C2` (centres undefined): the 90% effect concentration (IC90) is greater than 6.63 µM. The half-inhibitory concentration (IC50) (PBLUC_HILL_SLOPE 5.11, PBLUC_R_SQUARED 0.298, read-out: LUCIFERASE INFECTION ASSAY - IC50) came out at 5.56 µM.

Take `CC(C)NC(=O)c1c(NC(=O)c2ccc(Cl)cc2)nc2ccccn12`: the IC90 amounted to 1.07 µM. Further, the IC50 (HEPG2TOX_HILL_SLOPE 2.11, HEPG2TOX_R_SQUARED 0.869, PBLUC_HILL_SLOPE 50.8, PBLUC_R_SQUARED 0.665, read-out: LUCIFERASE INFECTION ASSAY - IC50) was 1.02 µM.

For the compound `CCc1c(C)sc2nc(SCC(=O)Nc3cc(C)on3)n(-c3ccc(O)cc3C)c(=O)c12`, the IC90 amounted to 8.83 µM. For the same compound, the half-maximal inhibitory concentration (IC50) under setting [1] turned out to be 3.89 µM.

With `N#C/C(=C\Nc1ncccn1)S(=O)(=O)c1ccccc1Cl`, the IC90 was greater than 10.3 µM. The IC50 (FFLUC_HILL_SLOPE 11.3, FFLUC_R_SQUARED 0.831, read-out: LUCIFERASE INFECTION ASSAY - IC50) is greater than 10.3 µM.

With `Cc1noc(C)c1CSc1ncccc1C(=O)N(C)c1ccc2ccccc2c1`, the IC90 was greater than 10 µM. Besides, the IC50 under setting [1] was greater than 10 µM.

Take `COc1ccc(-c2cc(NC=O)c3ncc(-c4ccc(OC)c(OC)c4)n3c2)c(OC)c1`: the IC90 is 0.0326 µM. For the same compound, the IC50 (HEPG2TOX_HILL_SLOPE 0.668, HEPG2TOX_R_SQUARED 0.811, PBLUC_HILL_SLOPE 48.6, PBLUC_R_SQUARED 0.635, read-out: LUCIFERASE INFECTION ASSAY - IC50) came to 0.0312 µM.

Turning to `CCN(CC)S(=O)(=O)c1ccc(N2CCOCC2)c(NC(=O)c2cc(-c3cc(OC)c(OC)c(OC)c3)nc3ccccc23)c1`, the IC90 came out at 8.54 µM. Moreover, the IC50 (PBLUC_HILL_SLOPE 2.9, PBLUC_R_SQUARED 0.79, read-out: LUCIFERASE INFECTION ASSAY - IC50) was determined as 4.01 µM.

As to `COCCCNC(=O)Cc1ccc(S(=O)(=O)N2CCOCC2)s1`, the IC90 is greater than 10 µM. Besides, the IC50 under setting [1] is greater than 10 µM.

With `CC(C)(C)NCc1cc(Cl)ccc1OCc1ccccc1F`, the IC90 was greater than 9.21 µM. For the same compound, where the note is “PBLUC_HILL_SLOPE 1.1, PBLUC_R_SQUARED 0.254, read-out: LUCIFERASE INFECTION ASSAY - IC50”, the IC50 was 4.67 µM.

Turning to `Cc1ccc(S(=O)(=O)N2CCCC(C(=O)NNC(=O)CCNC(=O)/C=C/c3ccccc3)C2)cc1` (centres undefined), the IC90 was greater than 10 µM. The IC50 under setting [1] is greater than 10 µM.

Take `O=[N+]([O-])c1cnc(Sc2nnc(O)n2C2CCCCC2)s1`: the IC90 amounted to 9.75 µM. The IC50 (FFLUC_HILL_SLOPE 1.98, FFLUC_R_SQUARED 0.448, HEPG2TOX_HILL_SLOPE 4.19, HEPG2TOX_R_SQUARED 0.922, PBLUC_HILL_SLOPE 12.6, PBLUC_R_SQUARED 0.344, read-out: LUCIFERASE INFECTION ASSAY - IC50) came to 8.19 µM.

As for `CCCCNC(=O)c1c(NC(=O)c2c(F)cccc2F)nc2ccc(C)cn12`, the IC90 came out at 6.69 µM. For the same compound, under setting [1], the IC50 turned out to be 5.12 µM.

`COCC(C)NS(=O)(=O)c1c(C(C)C)cc(C(C)C)cc1C(C)C` (centres undefined): the IC90 is greater than 9.28 µM. Further, the IC50 under setting [1] is greater than 9.28 µM.

Take `CC1CCCC(N=C2NN=C(c3c[nH]c(C(=O)N4CCCC4)c3)CS2)C1C` (centres undefined): the IC90 is greater than 10 µM. Further, under “HEPG2TOX_HILL_SLOPE 0.0793, HEPG2TOX_R_SQUARED 0.0179, read-out: LUCIFERASE INFECTION ASSAY - IC50”, the IC50 was greater than 10 µM.

`COc1cccc(/N=C2\SCC(C)(C)N2C(=O)c2ccccc2OCc2ccccc2C)c1`: the IC90 is greater than 10 µM. Besides, the IC50 (HEPG2TOX_HILL_SLOPE 1.35, HEPG2TOX_R_SQUARED 0.857, read-out: LUCIFERASE INFECTION ASSAY - IC50) is greater than 10 µM.

With `COc1ccc(CNc2ncnc3ccccc23)cc1`, the IC90 was greater than 10 µM. For the same compound, the IC50 (PBLUC_HILL_SLOPE 1.65, PBLUC_R_SQUARED 0.126, read-out: LUCIFERASE INFECTION ASSAY - IC50) is 3.67 µM.

Consider `Cc1cc(NC(=O)c2ccco2)sc1C(=O)Nc1nnc[nH]1`, for which the IC90 is greater than 10 µM. The IC50 under setting [1] is greater than 10 µM.

Turning to `COc1cccc(C(=O)c2c(-c3ccco3)c3c4n(c(-c5ccc(Cl)cc5)cn24)CCCC3)c1`, the IC90 is greater than 10 µM. Moreover, under “PBLUC_HILL_SLOPE 14.1, PBLUC_R_SQUARED 0.641, read-out: LUCIFERASE INFECTION ASSAY - IC50”, the IC50 amounted to 9.18 µM.

Take `O=S(=O)(c1ccc(N=C2NN=C(c3ccc4ccccc4c3)CS2)cc1)N1CCOCC1`: the IC90 stood at 9.33 µM. The IC50 under setting [1] is 4.82 µM.

Regarding `Cc1ccccc1OC1=C(Cl)C(=O)c2ccccc2C1=O`, the IC90 amounted to 9.86 µM. Further, the 50% inhibitory concentration (IC50) (FFLUC_HILL_SLOPE 16.7, FFLUC_R_SQUARED 0.318, HEPG2TOX_HILL_SLOPE 9.14, HEPG2TOX_R_SQUARED 0.751, PBLUC_HILL_SLOPE 4.24, PBLUC_R_SQUARED 0.127, read-out: LUCIFERASE INFECTION ASSAY - IC50) stood at 5.87 µM.

For the compound `CCOc1ccc(C(=O)NNC(=O)c2cc(Cl)ccc2O)cc1`, the 90% effect concentration (IC90) was greater than 10 µM. For the same compound, under “HEPG2TOX_HILL_SLOPE 1.98, HEPG2TOX_R_SQUARED 0.918, PBLUC_HILL_SLOPE 3.04, PBLUC_R_SQUARED 0.138, read-out: LUCIFERASE INFECTION ASSAY - IC50”, the IC50 was 7.76 µM.

For the compound `COc1cc(OC)cc(-c2cn3c(-c4cccc(OC(F)(F)F)c4)cnc3cn2)c1`, the IC90 is greater than 7.94 µM. Besides, the IC50 (PBLUC_HILL_SLOPE 10.9, PBLUC_R_SQUARED 0.156, read-out: LUCIFERASE INFECTION ASSAY - IC50) is greater than 7.94 µM.

`COc1ccc(NS(=O)(=O)c2cc(NC(=O)c3ccsc3)ccc2Cl)cc1`: the concentration for an effect of 90% (IC90) is 0.419 µM. For the same compound, for the setting “HEPG2TOX_HILL_SLOPE 1.65, HEPG2TOX_R_SQUARED 0.932, PBLUC_HILL_SLOPE 10.6, PBLUC_R_SQUARED 0.586, read-out: LUCIFERASE INFECTION ASSAY - IC50”, the IC50 was found to be 0.34 µM.

In the case of `CN(C)c1cccc(-c2cnc3sc(NCCCO)nn23)c1`, the IC90 is greater than 10.4 µM. In addition, the IC50 under setting [1] was greater than 10.4 µM.

Take `O=c1c(Cl)c(Cl)cnn1-c1ccc(F)c(Cl)c1`: the IC90 was 4.35 µM. For the same compound, the IC50 (HEPG2TOX_HILL_SLOPE 3.48, HEPG2TOX_R_SQUARED 0.867, PBLUC_HILL_SLOPE 16.6, PBLUC_R_SQUARED 0.498, read-out: LUCIFERASE INFECTION ASSAY - IC50) stood at 3.81 µM.

For the compound `COc1ccc2c(C)nc(Nc3nc(O)c4ccccc4n3)nc2c1`, the IC90 worked out at 3.1 µM. Moreover, for the setting “HEPG2TOX_HILL_SLOPE 241, HEPG2TOX_R_SQUARED 0.475, PBLUC_HILL_SLOPE 24.4, PBLUC_R_SQUARED 0.363, read-out: LUCIFERASE INFECTION ASSAY - IC50”, the IC50 was 2.83 µM.

Take `COC(=O)Cc1cc(=O)nc(SCC(=O)c2cc(C)n(-c3ccc(C(C)C)cc3)c2C)[nH]1`: the IC90 was greater than 10 µM. Further, under setting [1], the IC50 was greater than 10 µM.

Turning to `COc1ccc(-c2csc3ncnc(NCCC(C)C)c23)cc1`, the IC90 was greater than 10 µM. Besides, the IC50 under setting [1] is greater than 10 µM.

For `CNc1nc2cnc(Nc3cccc(Oc4ccccc4)c3)cc2n1-c1ccccc1`, the concentration for an effect of 90% (IC90) is greater than 10 µM. For the same compound, the 50% inhibitory concentration (IC50) (HEPG2TOX_HILL_SLOPE 5.82, HEPG2TOX_R_SQUARED 0.501, PBLUC_HILL_SLOPE 8.19, PBLUC_R_SQUARED 0.453, read-out: LUCIFERASE INFECTION ASSAY - IC50) was found to be 8.37 µM.

Regarding `O=C(CN1C(=O)C(=O)N(CCc2cccs2)C1=O)NC(=O)Nc1ccccc1F`, the IC90 was greater than 10 µM. Moreover, under “PBLUC_HILL_SLOPE 3, PBLUC_R_SQUARED 0.385, read-out: LUCIFERASE INFECTION ASSAY - IC50”, the half-maximal inhibitory concentration (IC50) was greater than 10 µM.

Turning to `N#CC(C(=O)c1ccc(Br)s1)c1nc2ccccc2s1` (centres undefined), the IC90 is 3.8 µM. Further, for the setting “HEPG2TOX_HILL_SLOPE 2.2, HEPG2TOX_R_SQUARED 0.729, PBLUC_HILL_SLOPE 11.3, 11.3, PBLUC_R_SQUARED 0.872, 0.879, read-out: LUCIFERASE INFECTION ASSAY - IC50”, the IC50 was 3.13 µM.

On to `CCC(C)NC(=O)c1c(NC(=O)c2cc(OC)cc(OC)c2)nc2ccc(C)cn12` (centres undefined), for which the IC90 came to 2.79 µM. Also, the IC50 (HEPG2TOX_HILL_SLOPE 2.24, HEPG2TOX_R_SQUARED 0.668, PBLUC_HILL_SLOPE 45.5, PBLUC_R_SQUARED 0.204, read-out: LUCIFERASE INFECTION ASSAY - IC50) came to 2.66 µM.

Take `Cc1cc(C(=O)COC(=O)/C=C/c2cn(C)c(=O)n(C)c2=O)c(C)n1CCc1ccc(Cl)cc1`: the IC90 was greater than 10 µM. For the same compound, the IC50 (FFLUC_HILL_SLOPE 11.7, FFLUC_R_SQUARED 0.825, read-out: LUCIFERASE INFECTION ASSAY - IC50) was greater than 10 µM.

Regarding `COc1cc(Nc2nccc3nc(-c4ccc5c(c4)OCCO5)[nH]c23)cc(OC)c1OC`, the IC90 was 1.67 µM. In addition, the half-maximal inhibitory concentration (IC50) under setting [1] stood at 0.494 µM.

As for `COCCCNc1nccc2nc(-c3cccc(OC(F)(F)F)c3)[nH]c12`, the IC90 is greater than 10 µM. Besides, the IC50 (HEPG2TOX_HILL_SLOPE 4.74, HEPG2TOX_R_SQUARED 0.77, PBLUC_HILL_SLOPE 3.71, PBLUC_R_SQUARED 0.224, read-out: LUCIFERASE INFECTION ASSAY - IC50) amounted to 5.72 µM.

Turning to `CCn1c(SCCOc2ccccc2Cl)nnc1-c1cc(-c2ccccc2)nc2ccccc12`, the IC90 is greater than 10 µM. Also, where the note is “PBLUC_HILL_SLOPE 1.65, PBLUC_R_SQUARED 0.274, read-out: LUCIFERASE INFECTION ASSAY - IC50”, the IC50 was greater than 10 µM.

What is called IC50 is the concentration needed to halve the response being measured. By IC90 is commonly meant the point of the concentration-response curve where the effect stands at 90%.
